Data as given in patent US12378208B2, “N-substituted oseltamivir derivatives with antimicrobial activity” (THE HONG KONG POLYTECHNIC UNIVERSITY, priority 2019, dated 2025).

What was measured:
[1] = system: influenza B virus (IBV) 12v28393; assay: Plaque assay in MDCK cells; format: cell-based; conditions: for plaque size: MDCK, day 3, vs DMSO vehicle, both concentrations
[2] = biological target: neuraminidase (Influenza A virus, UniProt O91745); conditions: previous studies (Ye et al., 2019); read-out: half maximal inhibitory concentration (IC50); cited from earlier work
[3] = system: influenza A virus A/OK/447/08 (H1N1); assay: Plaque assay in MDCK cells; format: cell-based; conditions: for plaque count: two concentrations; for plaque size compared with 0.2 nM oseltamivir: both compounds at both concentrations vs 0.2 nM oseltamivir
[4] = system: IBV 12v33261; assay: Plaque assay in MDCK cells; format: cell-based, influenza B virus; conditions: for plaque size: MDCK, day 3, vs DMSO vehicle, both concentrations
[5] = system: IBV 12v33280; assay: Plaque assay in MDCK cells; format: cell-based, influenza B virus; conditions: for plaque size: MDCK, day 3, vs DMSO vehicle, both concentrations
[6] = biological target: NA from A/H3N2 (Influenza A virus, UniProt O91745); assay: biochemical; format: biochemical, seasonal A/H3N2
[7] = 3.2 nM S22 vs 0.2 nM oseltamivir (p<0.01)

Sequence of neuraminidase (O91745 whole entry): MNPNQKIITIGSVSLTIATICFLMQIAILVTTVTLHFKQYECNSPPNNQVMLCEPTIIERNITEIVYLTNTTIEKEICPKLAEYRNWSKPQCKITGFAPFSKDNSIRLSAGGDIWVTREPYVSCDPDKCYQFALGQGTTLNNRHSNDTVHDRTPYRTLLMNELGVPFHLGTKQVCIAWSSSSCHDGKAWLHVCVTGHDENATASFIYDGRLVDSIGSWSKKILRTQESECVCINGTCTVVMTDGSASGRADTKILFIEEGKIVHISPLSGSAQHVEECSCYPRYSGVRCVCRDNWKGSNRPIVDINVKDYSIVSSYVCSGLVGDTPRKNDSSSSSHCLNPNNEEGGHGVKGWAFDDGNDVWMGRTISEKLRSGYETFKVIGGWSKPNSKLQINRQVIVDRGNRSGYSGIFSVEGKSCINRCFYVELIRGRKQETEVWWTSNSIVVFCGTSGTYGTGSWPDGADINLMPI
Sequence of NA from A/H3N2 (O91745 whole entry, looked up): as the sequence (O91745 whole entry) above

Row | Compound | Inhibition rate, 1 μM [6] | Inhibition rate, 10 μM [6] | also measured
1 | CCC(CC)O[C@@H]1C=C(C(=O)O)C[C@H](NCc2noc(-c3ccco3)n2)[C@H]1NC(C)=O [Compound S7, (3R,4R,5S)-4-acetamido-5-(((5-(furan-2-yl)-1,2,4-oxadiazol-3-yl)methyl)amino)-3-(pentan-3-yloxy)cyclohex-1-ene-1-carboxylic acid] | – | – | inhibition compared with 3.2 nM S22 ([1]; 3.8 nM S7 vs 3.2 nM S22 (p<0.05)): extra benefit; plaque size [1]: significantly reduce the plaque size; IC50 [2]: 1.9 nM; plaque count ([3]; […]): not plaque count; plaque size compared with 0.2 nM oseltamivir [3]: equally well; plaque size [4]: significantly reduce the plaque size; plaque size [5]: significantly reduce the plaque size; % Inhibition (1 nM) [6]: 28.1 ± 1.7%; IC50 ([6]; Table 2, Example 32): 1.92 ± 0.24 nM
2 | CCC(CC)O[C@@H]1C=C(C(=O)O)C[C@H](NCc2ccc(-c3c(C)noc3C)o2)[C@H]1NC(C)=O [Compound S22, (3R,4R,5S)-4-acetamido-5-(((5-(3,5-dimethylisoxazol-4-yl)furan-2-yl)methyl)amino)-3-(pentan-3-yloxy)cyclohex-1-ene-1-carboxylic acid] | – | – | plaque size compared with 0.2 nM oseltamivir [1, 7]: better inhibition effect; plaque size [1]: significantly reduce the plaque size; IC50 [2]: 1.6 nM; plaque count ([3]; […]): not plaque count; plaque size compared with 0.2 nM oseltamivir [3]: equally well; plaque size compared with 0.2 nM oseltamivir ([4]; 3.2 nM S22 vs 0.2 nM oseltamivir (p<0.05)): better inhibition effect; plaque size [4]: significantly reduce the plaque size; plaque size compared with 0.2 nM oseltamivir ([5]; 1.6 nM S22 vs 0.2 nM oseltamivir (p<0.05)): extra benefit; inhibition compared with 1.9 nM S7 ([5]; 1.6 nM S22 vs 1.9 nM S7 (p<0.05)): better; plaque size compared with 0.2 nM oseltamivir [5, 7]: better inhibition effect; inhibition compared with 1.9 nM S7 ([5]; 3.2 nM S22 vs 1.9 nM S7 (p<0.01)): better; plaque size [5]: significantly reduce the plaque size; % Inhibition (1 nM) [6]: 30.2 ± 1.5%; IC50 ([6]; Table 2, Example 32): 1.63 ± 0.16 nM
3 | CCC(CC)O[C@@H]1C=C(C(=O)O)C[C@H](NCc2cc(-c3ccccc3)on2)[C@H]1NC(C)=O [Compound S24] | – | – | % Inhibition (1 nM) [6]: 1.6 ± 0.4%
4 | CCC(CC)O[C@@H]1C=C(C(=O)O)C[C@H](NC(=O)c2cnn(Cc3ccccc3)c2)[C@H]1NC(C)=O [OC-001] | 7.71% | 32.02% | –
5 | CCC(CC)O[C@@H]1C=C(C(=O)O)C[C@H](NC(=O)c2cnn(Cc3cccc(OC)c3)c2)[C@H]1NC(C)=O [OC-002] | 6.12% | 23.37% | –
6 | CCC(CC)O[C@@H]1C=C(C(=O)O)C[C@H](NC(=O)c2cnn(Cc3cccc(Cl)c3)c2)[C@H]1NC(C)=O [OC-003] | 5.74% | 23.88% | –
7 | CCC(CC)O[C@@H]1C=C(C(=O)O)C[C@H](NC(=O)c2cnn(Cc3ccc(OC)cc3)c2)[C@H]1NC(C)=O [OC-004] | −0.21% | 26.79% | –
8 | CCC(CC)O[C@@H]1C=C(C(=O)O)C[C@H](NC(=O)c2cnn(Cc3ccccc3Cl)c2)[C@H]1NC(C)=O [OC-005] | −1.46% | 18.88% | –
9 | CCC(CC)O[C@@H]1C=C(C(=O)O)C[C@H](NC(=O)c2cnn(Cc3ccc(C(F)(F)F)cc3)c2)[C@H]1NC(C)=O [OC-006] | −2.25% | 21.72% | –
10 | CCC(CC)O[C@@H]1C=C(C(=O)O)C[C@H](NC(=O)c2cnn(Cc3cccc([N+](=O)[O-])c3)c2)[C@H]1NC(C)=O [OC-007] | −5.33% | 12.26% | –
11 | CCC(CC)O[C@@H]1C=C(C(=O)O)C[C@H](NC(=O)c2cc(-c3ccccc3)n[nH]2)[C@H]1NC(C)=O [OC-008] | 5.84% | 42.81% | –
12 | CCC(CC)O[C@@H]1C=C(C(=O)O)C[C@H](NC(=O)c2cc(-c3ccc(C(F)(F)F)cc3)n[nH]2)[C@H]1NC(C)=O [OC-009] | 3.44% | 46.76% | –
13 | CCC(CC)O[C@@H]1C=C(C(=O)O)C[C@H](NC(=O)c2cnn(-c3ccc(C)cc3)c2)[C@H]1NC(C)=O [OC-010] | 8.96% | 52.31% | IC50 ([6]; Table 4, Example 34): 43900 nM
14 | CCC(CC)O[C@@H]1C=C(C(=O)O)C[C@H](NC(=O)c2cc(-c3ccc(Cl)cc3)n[nH]2)[C@H]1NC(C)=O [OC-011] | 14.65% | 50.43% | –
15 | CCC(CC)O[C@@H]1C=C(C(=O)O)C[C@H](NC(=O)c2cc(-c3ccc(F)cc3)n[nH]2)[C@H]1NC(C)=O [OC-012] | 33.62% | 56.45% | IC50 ([6]; Table 4, Example 34): 11600 nM
16 | CCC(CC)O[C@@H]1C=C(C(=O)O)C[C@H](NC(=O)c2cc(C3CC3)nn2-c2ccccc2)[C@H]1NC(C)=O [OC-013] | 19.92% | 30.41% | –
17 | CCC(CC)O[C@@H]1C=C(C(=O)O)C[C@H](NC(=O)c2cc(-c3cccs3)n[nH]2)[C@H]1NC(C)=O [OC-014] | 21.57% | 40.02% | –

Row | Compound | Inhibition rate, 1 μM [6] | Inhibition rate, 10 μM [6] | also measured
18 | CCC(CC)O[C@@H]1C=C(C(=O)O)C[C@H](NC(=O)c2cc(-c3ccc(Cl)cc3)nn2CC2CC2)[C@H]1NC(C)=O [OC-015] | 16.52% | 31.50% | –
19 | CCC(CC)O[C@@H]1C=C(C(=O)O)C[C@H](NC(=O)c2cnn(-c3ccccc3C)c2)[C@H]1NC(C)=O [OC-016] | 12.74% | 38.37% | –
20 | CCC(CC)O[C@@H]1C=C(C(=O)O)C[C@H](NC(=O)c2cc(-c3ccc(OC)cc3)n[nH]2)[C@H]1NC(C)=O [OC-017] | 14.83% | 42.02% | –
21 | CCC(CC)O[C@@H]1C=C(C(=O)O)C[C@H](NC(=O)c2cc(-c3ccc(Cl)cc3)nn2CC2CCC2)[C@H]1NC(C)=O [OC-018] | 11.12% | 39.81% | –
22 | CCC(CC)O[C@@H]1C=C(C(=O)O)C[C@H](NC(=O)c2cc(-c3ccc(Cl)cc3)nn2CC2CCCCC2)[C@H]1NC(C)=O [OC-019] | 11.62% | 48.50% | –
23 | CCC(CC)O[C@@H]1C=C(C(=O)O)C[C@H](NC(=O)c2cc(C3CC3)n(-c3ccc(C(F)(F)F)cc3)n2)[C@H]1NC(C)=O [OC-020] | 8.26% | 44.47% | –
24 | CCC(CC)O[C@@H]1C=C(C(=O)O)C[C@H](NC(=O)c2cc(C3CC3)n(-c3ccccc3)n2)[C@H]1NC(C)=O [OC-021] | 7.13% | 30.57% | –
25 | CCC(CC)O[C@@H]1C=C(C(=O)O)C[C@H](NC(=O)c2cnn(-c3ccc(OC)cc3)c2)[C@H]1NC(C)=O [OC-022] | 6.31% | 34.15% | –
26 | CCC(CC)O[C@@H]1C=C(C(=O)O)C[C@H](NC(=O)c2cc(C3CC3)n(-c3cccc(C)c3)n2)[C@H]1NC(C)=O [OC-023] | 6.24% | 34.75% | –
27 | CCC(CC)O[C@@H]1C=C(C(=O)O)C[C@H](NC(=O)c2cc(C3CC3)n(-c3ccc(Br)cc3)n2)[C@H]1NC(C)=O [OC-024] | 5.84% | 42.68% | –
28 | CCC(CC)O[C@@H]1C=C(C(=O)O)C[C@H](NC(=O)c2cc(C3CC3)nn2-c2ccc(Br)cc2)[C@H]1NC(C)=O [OC-025] | 2.19% | 37.17% | –
29 | CCC(CC)O[C@@H]1C=C(C(=O)O)C[C@H](NC(=O)c2cnn(-c3ccc(Cl)cc3)c2)[C@H]1NC(C)=O [OC-026] | −0.26% | 25.67% | –
30 | CCC(CC)O[C@@H]1C=C(C(=O)O)C[C@H](NC(=O)c2cc(C3CC3)nn2-c2cccc(C)c2)[C@H]1NC(C)=O [OC-027] | 0.70% | 31.53% | –
31 | CCC(CC)O[C@@H]1C=C(C(=O)O)C[C@H](NC(=O)c2cc(C3CC3)n(-c3ccccc3C)n2)[C@H]1NC(C)=O [OC-028] | 8.06% | 60.91% | IC50 ([6]; Table 4, Example 34): 22700 nM
32 | CCC(CC)O[C@@H]1C=C(C(=O)O)C[C@H](NC(=O)c2cc(C3CC3)nn2-c2ccccc2C)[C@H]1NC(C)=O [OC-029] | 23.28% | 72.80% | IC50 ([6]; Table 4, Example 34): 16900 nM
33 | CCOC(=O)C1=C[C@@H](OC(CC)CC)[C@H](NC(C)=O)[C@@H](N)C1 [oseltamivir] | – | – | IC50 [2]: 0.1 nM; plaque count ([3]; […]): not plaque count; plaque size ([3]; […], two concentrations (oseltamivir 0.1/0.2 nM, S7 1.9/3.8 nM, S22 1.6/3.2 nM)): reduction in plaque size
